Among the data in a melting point compilation (Tetko et al.; mined from patent text by program, amines drawn as free bases though some values may be those of a salt) are melting point values, retold here.

The structures appear in SMILES notation. Some results are limits rather than exact numbers.

The melting point is the temperature, or range, at which the solid turns liquid. Consider `O=C(Nc1ccccc1O)c1ccc(OCCCCc2ccccc2)cc1`, for which the melting point lay within 116 to 117 °C. The value for `c1ccc2nc(COc3cccc4[nH]ccc34)ccc2c1` was 143 to 144 °C; that for `COC(=O)c1c[nH]c(-c2ccc(OC)cc2)n1` was 188 to 190 °C; that for `Cc1n[nH]c(=O)n1-c1ccc(OC(F)(F)C(F)F)cc1` was 204 to 205 °C. The result for `CCOC(=O)C1=C(C)NC(CCN(C)C)=C(C(=O)OCC)C1c1ccccc1/C=C/C(=O)OC(C)(C)C` (stereo not drawn) reads 150 to 151 °C; that for `CC(=O)OCCOc1ccc(C=Cc2ccc(S(C)(=O)=O)cc2)cc1`, 175 to 177 °C; that for `Cn1cc(C2=C(c3ccccc3)C(=O)NC2=O)c2ccccc21`, 230 to 232 °C. Consider `CCCCCC(=O)NC(Cc1cnc(SCCC)n1Cc1ccccc1Cl)C(=O)O` (stereo not drawn), for which the melting point lay within 118 to 121 °C.

The compound `NC(=O)C(Cc1ccccc1)NC(=O)Nc1n[nH]c(=S)s1` (stereo not drawn) returned a melting point of 175 to 177 °C. The value for `CC(C)n1nc(-c2sc(NC(=O)c3ccccc3F)nc2-c2ccccc2)ccc1=O` was 251 to 252 °C. As to `COc1ccc(F)cc1C(C)(C)CC(C)(O)Cc1cc2ccccc2[nH]1` (stereo not drawn), the melting point was 118 to 120 °C.

Compound `Cc1ccccc1CC(=NC#N)NC(NC(=O)Cc1ccc(C#N)cc1)C(C)(C)C` (stereo not drawn) had a melting point of 199 to 201 °C. The value for `CCOc1ccc2c(c1)C(C)(c1cc(C(=O)N3CCN(C)CC3)ccc1Cl)C(=O)N2S(=O)(=O)c1ccc(C(=O)NC(C)(C)C)cc1OC` (stereo not drawn) was 96 °C; that for `NC(=O)CON=C(c1ccc(Cl)cc1)c1ccc(Cl)cc1` was 141 to 142 °C; that for `COc1ccc(CN(C)CCC2CN(C)C(=S)c3cccnc3O2)cc1` (stereo not drawn) was 128 to 130 °C.

For `CN1CCCc2ccc(O)cc21`, the melting point was in the range of 97 to 98 °C.

`Cc1cc(-n2cncn2)cc2c1NC(=O)CC2` gave a melting point of 258 to 259 °C. `CCOC(=O)c1c(CN2CCOCC2)nc2cc(OC)c(OC)cc2c1-c1ccc(OC)cc1` displayed a melting point of 165 to 166 °C. The value for `Cc1cc(-c2cc(C(F)(F)F)n3ncc(C(=O)Nc4cccc(S(=O)(=O)NC5CC5)c4)c3n2)ccc1Cl` was 244 °C. The result for `CC[C@@H](CO)[C@](O)(Cn1cncn1)c1ccc(F)cc1F` reads 75 to 77 °C; that for `CC(C)(C)OC(=O)NC(C(=O)NC1c2cc(C#N)ccc2OC(C)(C)C1O)c1ccccc1` (stereo not drawn), 112 to 130 °C. Regarding `CC#Cc1ccc(NC(=O)c2cccnc2Cl)cc1`, the melting point was in the range of 136 to 138 °C. The value for `CCOC(=O)C1(C(=O)NCc2ccccc2)CC(=O)N(Cc2ccccc2)C1` (stereo not drawn) was 63 to 65 °C; that for `CCOC(=O)N(C)N1CCc2ccccc2C(Oc2ccc(C(F)(F)F)cc2)C1` (stereo not drawn) was 204 to 205 °C; that for `CC1CCc2c(-n3ccnc3)c(F)cc3c(=O)c(C(=O)O)cn1c23` (stereo not drawn) was more than 250 °C.

In the case of `COc1ccc(C2(O)C(c3ccccc3Cl)SC3=NCCCCN32)cc1OC` (stereo not drawn), the melting point was 98 to 100 °C. The value for `CC(=NOc1ccc(Cl)cc1)c1ccc(C(F)(F)F)cc1NS(=O)(=O)C(F)(F)F` was 89 to 90 °C; that for `Cc1ncc(CC(=O)O)s1` was 144 °C; that for `COc1ccc(NC(=O)c2ccc([N+](=O)[O-])cc2N)cc1` was 193 to 197 °C.

In the case of `CN1Cc2c(C(=O)O)ncn2-c2cccnc2C1=O`, the melting point was in the range of 292 to 295 °C.

For `O=C(O)C1Cc2c([nH]c3ccccc23)CN1C(=S)SC1CCCCC1` (stereo not drawn), the melting point was in the range of 150 to 151 °C.

On to `CNC(=O)c1c(C)c([N+](=O)[O-])cc2nc(OC)c(OC)nc12`, for which the melting point lay within 205 to 206 °C. The result for `CC(=O)Nc1ccc(S(=O)(=O)Nc2ccn(CC3CC3)c(=O)n2)cc1` reads 222 to 224 °C; that for `CCCCCc1ccc(-c2ccc(C(=O)O)cc2)cc1`, 174 °C. In turn, `COc1ccc(CCNC(=O)CCc2ccc(Cl)cc2)cc1C` returned a melting point of 142 to 144 °C. Regarding `CC(CCCO)C1CCC2C3CC=C4CC(OC5CCCCO5)CCC4(C)C3CCC12C` (stereo not drawn), the melting point was 130 to 131 °C. In the case of `Cc1nc2c(N)nc3c(c2n1CCOCCCc1cccnc1)CCCC3`, the melting point was in the range of 140 to 141 °C. The value for `Clc1ccc(OCc2ccccc2)c(C=Cc2ccccn2)c1` was 105 to 106 °C; that for `Cc1ccc(S(=O)(=O)N(C)c2cccc(-c3ccnc4c(C(=O)c5ccccc5)cnn34)c2)cc1` was 170 to 171 °C. The value for `N#Cc1c(Cl)ccc([N+](=O)[O-])c1N` was 181 to 184 °C. The result for `COc1nc2cc(Cl)c(Cl)cc2nc1NS(=O)(=O)c1cccc(Cl)c1Cl` reads 283 to 285 °C; that for `CC(C)Cc1nc(Cc2ccccc2)c2c(c1O)COC2`, 174 to 175 °C. With `CCCn1c(=O)c2c(nc(/C=C/c3ccc(OCC)c(OCC)c3)n2C)n(CCC)c1=O`, the melting point amounted to 174 °C. The result for `O=[N+]([O-])c1cccc(OCc2nc3ccccc3s2)c1` reads 156 to 157 °C.

On to `O=C(Cl)c1cc(C(=O)Cl)c(C#Cc2ccccc2)cc1C#Cc1ccccc1`, for which the melting point is 157 to 160 °C. The result for `Cc1oc(=O)c(Nc2ccccc2)nc1Cl` reads 133 to 137 °C. The value for `Cc1nc(N2CCN(CCCc3ccccc3)C2=O)sc1C(=O)O` was 218 to 221 °C; that for `COc1cc2c(Nc3ccc(Cl)cc3F)ncnc2cc1OCCCC(=O)N1CCN(C)CC1` was 248 to 250 °C. As for `COc1ccc(CNc2nc(NCCCc3ccc(C(C)=O)cc3)nc3ncccc23)cc1OC`, the melting point was in the range of 184 to 185 °C. The result for `COCCc1ccsc1S(N)(=O)=O` reads 64 to 73 °C; that for `O=C(C(Cl)=Cn1ccnc1)c1ccc(Cl)cc1Cl`, 149 to 151 °C; that for `Cn1ncnc1-c1ccc(C(=O)C(=O)N2Cc3cccn3Cc3ccccc32)c(Cl)c1`, 141 to 143 °C. The value for `O=C1CCC(=O)c2ccccc2N1` was 168 to 170 °C; that for `Cc1nn(-c2cc(Oc3ccc(C(=O)O)cc3)c(Cl)cc2F)c(=O)n1C(F)F` was 184 to 185 °C. The value for `O=C(c1ccc(OC2CCOCC2)cc1)c1ccc([N+](=O)[O-])cc1` was 105 to 106 °C; that for `COc1nc(OC)nc(C2CC2)n1` was 68 to 70 °C. `Cc1c(F)cnc(N)c1F` had a melting point of 92 to 93 °C.

Consider `O=[N+]([O-])C1=CN(Cc2ccccc2)C2C([N+](=O)[O-])=CN(Cc3ccccc3)C1N2Cc1ccccc1`, for which the melting point is 184 to 185 °C.

On to `C=CC(O)(c1ccc(Cl)cc1)c1cccnc1` (stereo not drawn), for which the melting point lay within 82.5 to 84 °C. The value for `CCn1c(C)c(C2(c3c(-c4ccccc4)c(-c4ccccc4)c4ccccn34)OC(=O)c3cccnc32)c2ccccc21` (stereo not drawn) was 206 to 208 °C; that for `O=S(=O)(Cl)c1cc(S(=O)(=O)Cl)c2c(Cl)ccc(S(=O)(=O)Cl)c2c1` was 165 to 166 °C.

Consider `COc1ccc(C2Sc3cccc4cccc(c34)N(CCN(C)C)C(=O)C2OC(C)=O)cc1` (stereo not drawn), for which the melting point is 111 to 112 °C. The result for `C=C1c2[nH]c3ccc(OC)cc3c2CCN1C=O` reads 180 to 181 °C; that for `CCON=C(CC)C1=C(O)CC(c2ccc(NS(C)(=O)=O)cc2)CC1=O` (stereo not drawn), 115 to 116 °C; that for `Cc1nnc(-c2nn(-c3cccc(C(F)(F)F)c3)ccc2=O)n1-c1ccccc1`, 191 to 192 °C. Regarding `COc1cc(COC(=O)CCc2nc(-c3ccc(Cl)cc3)co2)cc(OC)c1OC`, the melting point was in the range of 86 to 87 °C.

Consider `CCCCOCC1OC(n2c(Cl)nc3cc(Cl)c(Cl)cc32)C(O)C1O` (stereo not drawn), for which the melting point lay in the range of 70 to 72 °C. The value for `Cc1cccc(C)c1NC(=S)C1(C)CCc2c(C)c(O)c(C)c(C)c2O1` (stereo not drawn) was 122 to 123 °C; that for `CCOc1ccc(OCc2cccc(OCc3nc(-c4ccccc4)oc3C)c2)cc1CCC(=O)O` was 136 to 137 °C; that for `c1ccc(COc2cccc(CSc3nc4cnccc4[nH]3)c2)cc1` was 161 to 164 °C. The result for `CCOC(=O)c1cn(C)c2c(OCC)csc2c1=O` reads 198 to 200 °C; that for `CCCC[C@@H](O)[C@H](O)CCCC`, 48 to 49 °C. Compound `Cc1ccc(-c2ccc(C(=O)Nc3ccc4cc(CN5CCCC5)cnc4c3C)c(F)c2)cc1` showed a melting point of 180 to 182 °C. The compound `CNc1ccc([N+](=O)[O-])cc1C(F)(F)F` registered a melting point of 99 to 101 °C. The value for `C=CCc1c(O)cc(O)c(C(C)=O)c1O` was 158 to 159 °C; that for `CCCc1noc(-c2ncn3c2[C@@H]2CCCN2C(=O)c2c(Cl)cccc2-3)n1` was 176 to 178 °C; that for `Cc1cc([N+](=O)[O-])cc(C(=O)Nc2nnn[nH]2)n1` was more than 300 °C. The value for `Nc1nc(-c2ccccc2)nc2c1=NCC(=O)N=2` was 330 to 332 °C. Take `O=C(OCC(O)CO)c1ccc(C=Cc2csc3ccccc23)s1` (stereo not drawn): the melting point lay within 102 to 104 °C.

In turn, `O=C(O)c1cc(Br)cc([N+](=O)[O-])c1NCc1ccccc1Cl` yielded a melting point of 159 to 161 °C.

In turn, `CC(Oc1cccc(-c2ccc(Cl)c(C(=O)NCC34CC5CC(CC(C5)C3)C4)c2)c1)C(=O)O` (stereo not drawn) gave a melting point of 115 to 120 °C. Consider `COC(=O)c1ccc(Oc2cc3c(cc2C(C)C)C(C)(C)CCC3(C)C)cc1`, for which the melting point lay in the range of 115 to 116 °C. The result for `CCNc1c(-c2ccccc2C)nc2c3cc(OC)ccc3ccn12` reads 153 to 154 °C; that for `CON(C(=O)c1cn(C)nc1C(F)F)C(C)c1ccc(I)cc1` (stereo not drawn), 72 to 74 °C; that for `O=S(=O)(c1ccc(Cl)cc1)N1CCCC1c1ccccc1` (racemic), 119 °C. Turning to `CC(C)NCC(O)COc1ccc(C2=NNC(=O)CC2)c2ccccc12` (stereo not drawn), the melting point fell in the range of 131 to 135 °C. The value for `CN(C)c1cccc(C(=O)Nc2ccc3ccc(Oc4ccccc4)nc3n2)c1` was 120 °C; that for `CCCCc1c(/C=C/C(=O)OC)cc(OC)c2ccccc12` was 63 to 64 °C.
